Data as given in patent publication US10590129B2 (Incozen Therapeutics Pvt. Ltd., priority 2010, dated 2020).
Counter-ions that a name gives are not always drawn.

Tested on: MKN-45 cells
Test: Inhibition of MKN-45 proliferation (MTT)
Format: cell-based, human
Conditions: for GI50 / inhibition at 0.1 µM / inhibition at 1 µM: Homo sapiens; for inhibition at 0.1 µM / Inhibition (% Inhibition of MKN-45 proliferation): 0.1 μM
Description: Inhibition of MKN-45 Proliferation:
Cell proliferation assays were carried out using the high Met expressing human gastric adenocarcinoma cell line, MKN-45, according to the following schedule:
Day 1: Cells were plated in 96-well plates in complete growth medium.
Day 2: Compounds at desired concentrations were added.
Day 5: Cell viability was determined using the 3-[4,5-dimethylthiazol-2-yl]-2,5-diphenyltetrazolium bromide (MTT) dye reduction test.

| GI50 (MKN-45, MKN-45 proliferation) [µM] | SMILES | inhibition at 0.1 µM (MKN-45, MKN-45 proliferation) [%] | also measured |
| --- | --- | --- | --- |
| ≤ 0.05 | CCNC(=O)c1ccc(-c2ccc3nnn(Cc4cc5cccnc5cc4F)c3n2)cc1Cl [Ex 133, 2-Chloro-N-ethyl-4-(3-((7-fluoroquinolin-6-yl)methyl)-3H-[1,2,3]triazolo[4,5-b]pyridin-5-yl)benzamide] | 75 to 100 | – |
| – | c1ccc(Nc2ccc3nnn(Cc4ccc5ncccc5c4)c3n2)cc1 [Ex 202, N-Phenyl-3-(quinolin-6-ylmethyl)-3H-[1,2,3]triazolo[4,5-b]pyridin-5-amine] | < 25 | – |
| – | CCNC(=O)c1ccc(-c2ccc3nnn(Cc4ccc5c(ccc[n+]5[O-])c4)c3n2)cc1Cl | < 25 | inhibition at 1 µM (MKN-45, MKN-45 proliferation): < 25% |
| – | O=C(O)c1ccc(-c2ccc3nnn(Cc4ccc5ncccc5c4)c3n2)cc1 [Ex 22, Lithium 4-(3-(quinolin-6-ylmethyl)-3H-[1,2,3]triazolo[4,5-b]pyridin-5-yl)benzoate] | – | inhibition at 1 µM (MKN-45 proliferation): < 25% |
| ≤ 0.05 | O=C(NCCN1CCCC1)c1ccc(-c2ccc3nnn(Cc4ccc5ncccc5c4)c3n2)cc1 [Ex 37, N-(2-(pyrrolidin-1-yl)ethyl)-4-(3-(quinolin-6-ylmethyl)-3H-[1,2,3]triazolo[4,5-b]pyridin-5-yl)benzamide] | – | – |
| – | NC(=O)c1ccc(-c2ccc3ncn(Cc4ccc5ncccc5c4)c3n2)cc1Cl [Ex 215, 2-Chloro-4-(3-(quinolin-6-ylmethyl)-3H-imidazo[4,5-b]pyridin-5-yl)benzamide] | < 25 | – |
| – | CN(C)CCCNC(=O)c1ccc(-c2ccc3nnn(Cc4ccc5ncccc5c4)c3n2)cc1F [Ex 121, N-(3-(dimethylamino)propyl)-2-fluoro-4-(3-(quinolin-6-ylmethyl)-3H-[1,2,3]triazolo[4,5-b]pyridin-5-yl)benzamide dihydrochloride] | – | inhibition at 1 µM (MKN-45, MKN-45 proliferation): < 25%; Inhibition (% Inhibition of MKN-45 proliferation) (MKN-45 proliferation, dihydrochloride): A (A = ≥75 to 100%) |
| – | CCNC(=O)c1ccc(-c2ccc3nnn(Cc4ccc5ncccc5c4)c3n2)cc1Cl [Ex 225, 2-chloro-N-ethyl-4-(3-(quinolin-6-ylmethyl)-3H-[1,2,3]triazolo[4,5-b]pyridin-5-yl)benzamide hydrochloride] | 75 to 100 | inhibition at 1 µM (MKN-45, MKN-45 proliferation): 50 to 75% |
| ≤ 0.05 | C/C(=N/NC(N)=O)c1ccc2nnn(Cc3ccc4ncccc4c3)c2n1 [Ex 209, 2-(1-(3-(Quinolin-6-ylmethyl)-3H-[1,2,3]triazolo[4,5-b]pyridin-5-yl)ethylidene) hydrazinecarboxamide] | 75 to 100 | – |
| < 1 | c1cnc2ccc(Cn3nnc4ccc(-c5ccc6cc[nH]c6c5)nc43)cc2c1 [Ex 170, 6-((5-(1H-Indol-6-yl)-3H-[1,2,3]triazolo[4,5-b]pyridin-3-yl)methyl)quinoline] | – | – |
| – | NC(=O)c1ccc(-c2ccc3nnn(Cc4ccc5ncccc5c4)c3n2)cc1C(F)(F)F [Ex 223, 4-(3-(Quinolin-6-ylmethyl)-3H-[1,2,3]triazolo[4,5-b]pyridin-5-yl)-2-(trifluoromethyl)benzamide] | 75 to 100 | – |
| 0.05 to 0.15 | c1cnc2ccc(Cn3nnc4ccc(-c5cn[nH]c5)nc43)cc2c1 [Ex 143, 6-((5-(1H-Pyrazol-4-yl)-3H-[1,2,3]triazolo[4,5-b]pyridin-3-yl)methyl)quinoline] | – | – |
| – | NC(=O)c1ccc(-c2ccc3nnn(Cc4ccc5c(ccc[n+]5[O-])c4)c3n2)cc1Cl [Ex 224, 6-((5-(4-carbamoyl-3-chlorophenyl)-3H-[1,2,3]triazolo[4,5-b]pyridin-3-yl)methyl)quinoline 1-oxide] | 25 to 50 | – |
| < 1 | COCCN(CCOC)C(=O)c1ccc(-c2ccc3nnn(Cc4ccc5ncccc5c4)c3n2)cc1 [Ex 40, N,N-Bis(2-methoxyethyl)-4-(3-(quinolin-6-ylmethyl)-3H-[1,2,3]triazolo[4,5-b]pyridin-5-yl)benzamide hydrochloride] | – | – |
| ≤ 0.05 | CONC(=O)c1ccc(-c2ccc3nnn(Cc4ccc5ncccc5c4)c3n2)cc1F [Ex62] | – | – |
| – | Cl.O=C(Nc1nc[nH]n1)c1ccc(-c2ccc3nnn(Cc4ccc5ncccc5c4)c3n2)cc1F [Ex 127, 2-Fluoro-4-(3-(quinolin-6-ylmethyl)-3H-[1,2,3]triazolo[4,5-b]pyridin-5-yl)-N-(1H-1,2,4-triazol-3-yl)benzamide hydrochloride] | – | inhibition at 1 µM (MKN-45, MKN-45 proliferation): 75 to 100%; Inhibition (% Inhibition of MKN-45 proliferation) (MKN-45 proliferation): A (A = ≥75 to 100%) |
| – | O=C(O)CCNc1ccc(-c2ccc3nnn(Cc4ccc5ncccc5c4)c3n2)cc1F [Ex 58, 3-(2-Fluoro-4-(3-(quinolin-6-ylmethyl)-3H-[1,2,3]triazolo[4,5-b]pyridin-5-yl)phenylamino)propanoic acid] | < 25 | inhibition at 1 µM (MKN-45, MKN-45 proliferation): < 25% |
| – | NCCCNC(=O)c1ccc(-c2ccc3nnn(Cc4ccc5ncccc5c4)c3n2)cc1F [Ex 125, N-(3-Aminopropyl)-2-fluoro-4-(3-(quinolin-6-ylmethyl)-3H-[1,2,3]triazolo[4,5-b]pyridin-5-yl)benzamide dihydrochloride] | < 25 | inhibition at 1 µM (MKN-45, MKN-45 proliferation): < 25% |
| – | COCCn1cc(-c2ccc3nnn(Cc4ccc5ncccc5c4)c3n2)cn1 [Ex 201, 6-((5-(1-(2-Methoxyethyl)-1H-pyrazol-4-yl)-3H-[1,2,3]triazolo[4,5-b]pyridin-3-yl)methyl)quinoline] | < 25 | – |

| GI50 (MKN-45, MKN-45 proliferation) [µM] | SMILES | inhibition at 0.1 µM (MKN-45, MKN-45 proliferation) [%] | also measured |
| --- | --- | --- | --- |
| 0.05 to 0.15 | O=C(NCCN1CCCC1)c1ccc(-c2ccc3nnn(Cc4ccc5ncccc5c4)c3n2)cc1F [Ex 44, 2-Fluoro-N-(2-(pyrrolidin-1-yl)ethyl)-4-(3-(quinolin-6-ylmethyl)-3H-[1,2,3]triazolo[4,5-b]pyridin-5-yl)benzamide] | – | – |
| ≤ 0.05 | CC(c1ccc2ncccc2c1)n1nnc2ccc(-c3ccc(C(N)=O)c(Cl)c3)nc21 (racemic) [Ex 214, 2-Chloro-4-(3-(1-(quinolin-6-yl)ethyl)-3H-[1,2,3]triazolo[4,5-b]pyridin-5-yl)benzamide] | 75 to 100 | – |
| < 1 | CN1CCN(C(=O)c2ccc(-c3ccc4nnn(Cc5ccc6ncccc6c5)c4n3)cc2)CC1 [Ex 26, (4-Methylpiperazin-1-yl)(4-(3-(quinolin-6-ylmethyl)-3H-[1,2,3]triazolo[4,5-b]pyridin-5-yl)phenyl)methanone] | – | – |
| – | O=C(NC1CC1)c1ccc(-c2ccc3nnn(Cc4ccc5ncccc5c4)c3n2)cc1Cl [Ex113] | 75 to 100 | – |
| < 1 | c1cnc2ccc(Cn3nnc4ccc(-c5ccc6[nH]ccc6c5)nc43)cc2c1 [Ex 169, 6-((5-(1H-Indol-5-yl)-3H-[1,2,3]triazolo[4,5-b]pyridin-3-yl)methyl)quinoline] | – | – |
| < 1 | O=C(c1ccc(-c2ccc3nnn(Cc4ccc5ncccc5c4)c3n2)cc1)N1CC[C@@H](O)C1 [Ex 34, (R)-(3-hydroxypyrrolidin-1-yl)(4-(3-(quinolin-6-ylmethyl)-3H-[1,2,3]triazolo[4,5-b]pyridin-5-yl)phenyl)methanone hydrochloride] | – | – |
| – | Nc1ccc(-c2ccc3nnn(Cc4ccc5ncccc5c4)c3n2)cc1 [Ex64] | < 25 | – |
| – | O=C(NCc1ccco1)c1ccc(-c2ccc3nnn(Cc4ccc5ncccc5c4)c3n2)cc1F [Ex92] | < 25 | – |
| – | Cc1n[nH]cc1-c1ccc2nnn(Cc3ccc4ncccc4c3)c2n1 | 25 to 50 | inhibition at 1 µM (MKN-45, MKN-45 proliferation): < 25% |
| < 1 | O=C(c1ccc(-c2ccc3nnn(Cc4ccc5ncccc5c4)c3n2)cc1)N1CCC[C@H]1CN1CCCC1 [Ex 32, (S)-(2-(pyrrolidin-1-ylmethyl)pyrrolidin-1-yl)(4-(3-(quinolin-6-ylmethyl)-3H-[1,2,3]triazolo[4,5-b]pyridin-5-yl)phenyl)methanone hydrochloride] | – | – |
| 0.05 to 0.15 | CN(C)CCCNC(=O)c1ccc(-c2ccc3nnn(Cc4ccc5ncccc5c4)c3n2)cc1 [Ex 39, N-(3-(dimethylamino)propyl)-4-(3-(quinolin-6-ylmethyl)-3H-[1,2,3]triazolo[4,5-b]pyridin-5-yl)benzamide] | – | – |
| 0.15 to 0.5 | Cc1nn(C)c2cc(-c3ccc4nnn(Cc5ccc6ncccc6c5)c4n3)ccc12 [Ex 179, 6-((5-(1,3-dimethyl-1H-indazol-6-yl)-3H-[1,2,3]triazolo[4,5-b]pyridin-3-yl)methyl)quinoline] | – | – |
| 0.15 to 0.5 | Clc1cc(-c2ccc3nnn(Cc4ccc5ncccc5c4)c3n2)ccn1 [Ex 171, 6-((5-(2-Chloropyridin-4-yl)-3H-[1,2,3]triazolo[4,5-b]pyridin-3-yl)methyl)quinoline] | – | – |
| ≤ 0.05 | C=CCNC(=O)c1ccc(-c2ccc3nnn(Cc4ccc5ncccc5c4)c3n2)cc1F [Ex61] | – | – |
| – | NC(=O)c1ccc(-c2ccc3nnn(Cc4ccc5ncccc5c4)c3n2)cc1F [Ex 74, 2-Fluoro-4-(3-(quinolin-6-ylmethyl)-3H-[1,2,3]triazolo[4,5-b]pyridin-5-yl)benzamide hydrochloride] | 50 to 75 | inhibition at 1 µM (MKN-45, MKN-45 proliferation): 50 to 75% |
| – | NC(=O)c1cc(-c2ccc3nnn(Cc4ccc5ncccc5c4)c3n2)ccc1F [Ex 206, 2-Fluoro-5-(3-(quinolin-6-ylmethyl)-3H-[1,2,3]triazolo[4,5-b]pyridin-5-yl)benzamide] | 50 to 75 | – |
| < 1 | c1cnc2ccc(Cn3nnc4ccc(-c5cnn(C6CCOCC6)c5)nc43)cc2c1 [Ex 177, 6-((5-(1-(Tetrahydro-2H-pyran-4-yl)-1H-pyrazol-4-yl)-3H-[1,2,3]triazolo[4,5-b]pyridin-3-yl)methyl)quinoline] | – | – |
| 0.05 to 0.15 | CN(C)CCNC(=O)c1ccc(-c2ccc3nnn(Cc4ccc5ncccc5c4)c3n2)cc1 [Ex 27, N-(2-(dimethylamino)ethyl)-4-(3-(quinolin-6-ylmethyl)-3H-[1,2,3]triazolo[4,5-b]pyridin-5-yl)benzamide] | – | – |
| < 1 | Cc1n[nH]c2ccc(-c3ccc4nnn(Cc5ccc6ncccc6c5)c4n3)cc12 [Ex 172, 6-((5-(3-Methyl-1H-indazol-5-yl)-3H-[1,2,3]triazolo[4,5-b]pyridin-3-yl)methyl)quinoline] | – | – |
